pIC50: −log10 of the molar value.

In the first test the target is T1, human mPGES-1 (Homo sapiens, UniProt O14684).
T1 construct: made in house; host or cells: FreeStyle CHO-S cells (Chinese hamster ovary), transient transfection with pcDNA3.1(+)/human mPGES-1; microsome fraction used
T1 sequence (O14684 1-152): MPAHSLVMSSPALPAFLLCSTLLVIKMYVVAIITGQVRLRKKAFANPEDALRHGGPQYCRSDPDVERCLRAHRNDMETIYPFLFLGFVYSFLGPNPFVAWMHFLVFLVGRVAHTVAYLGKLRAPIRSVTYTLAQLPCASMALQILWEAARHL
Nature of the test: Evaluation of human mPGES-1 enzyme inhibitory activity (PGE2 measured by HTRF, microsome fraction of CHO-S cells expressing human mPGES-1). In kind it is biochemical. To be noted: IC50 value; microsome fraction of CHO-S cells expressing human mPGES-1, PGE2 by HTRF. The method, boiled down:
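Enzyme source: microsomes from CHO-S cells transfected with human mPGES-1 and cultured 48 hr, diluted to 5 μg/mL protein in reduced GSH (12.5 mmol/L KPB solution). Test articles were in 0.1 mol/L potassium phosphate pH 7.4, final DMSO 2% (v/v). PGE2 formed was quantified by HTRF.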
A general note: In TR-FRET formats the signal depends on donor and acceptor labels being close together.
In turn, `CC1(COc2ccc(-c3nc(O)nc(-c4cc(CNC(=O)C(C)(C)C(F)(F)F)ccc4Cl)n3)cc2)CCC1` [Example 1-143] showed a pIC50 of 9.00.
The compound `COCCOc1ccc(-c2nc(O)nc(-c3cc(CNC(=O)C(C)(C)C(F)(F)F)ccc3Cl)n2)cc1` [Example 1-144] had a pIC50 of 9.05.
Still for that read-out and setting: to `CCC1(COc2ccc(-c3nc(O)nc(-c4cc(CNC(=O)C(C)(C)C(F)(F)F)ccc4Cl)n3)cc2)COC1` [Example 1-145] belongs 9.30.
The same measure, in the same setting: to `CC#CCOc1ccc(-c2nc(O)nc(-c3cc(CNC(=O)C(C)(C)C(F)(F)F)ccc3Cl)n2)cc1` [Example 1-146] belongs 9.40.
On the same count and under the same terms, to `Cc1cc(-c2nc(O)nc(-c3cc(CNC(=O)C(C)(C)C(F)(F)F)ccc3Cl)n2)ccc1C(F)(F)F` [Example 1-147] belongs 9.10; to `CO[C@](C)(C(=O)NCc1ccc(Cl)c(-c2nc(O)nc(-c3ccc(C(F)(F)F)c(C)c3)n2)c1)C(F)(F)F` [Example 1-148], 8.77.
In turn, `Cc1cc(-c2nc(O)nc(-c3cc(CNC(=O)C4(C(F)(F)F)CC4)ccc3Cl)n2)ccc1C(F)(F)F` [Example 1-149] showed a pIC50 of 9.10.
Same read-out and setting: to `CCc1cc(-c2nc(O)nc(-c3cc(CNC(=O)[C@@](C)(OC)C(F)(F)F)ccc3Cl)n2)ccc1F` [Example 1-151] belongs 9.40; to `CCc1cc(-c2nc(O)nc(-c3cc(CNC(=O)C4(C(F)(F)F)CC4)ccc3Cl)n2)ccc1F` [Example 1-152], 9.40; to `CC(C)(C(=O)NCc1ccc(Cl)c(-c2nc(O)nc(-c3ccc(F)c(Cl)c3)n2)c1)C(F)(F)F` [Example 1-153], 9.30.
For the compound `CCCOc1ccc(-c2nc(O)nc(-c3cc(CNC(=O)C4(C(F)(F)F)CC4)ccc3Cl)n2)cc1` [Example 1-154], the negative-log IC50 (pIC50) was 9.30.
Still for that read-out and setting: to `CCC[C@H](C)Oc1ccc(-c2nc(O)nc(-c3cc(CNC(=O)C(C)(C)C(F)(F)F)ccc3Cl)n2)cc1` [Example 1-155] belongs 8.46; to `CCC[C@@H](C)Oc1ccc(-c2nc(O)nc(-c3cc(CNC(=O)C(C)(C)C(F)(F)F)ccc3Cl)n2)cc1` [Example 1-156], 8.39.
On the same count and under the same terms, to `O=C(NCc1ccc(Cl)c(-c2nc(O)nc(-c3ccc(F)c(C4CC4)c3)n2)c1)C1(C(F)(F)F)CC1` [Example 1-157] belongs 9.15; to `CCCOc1ccc(-c2nc(O)nc(-c3cc(CN4CC(C)(C)C4=O)ccc3Cl)n2)cc1` [Example 1-158], 7.92; to `CC(C)(C(=O)NCc1ccc(Cl)c(-c2nc(O)nc(-c3cccc(C4CC4)c3)n2)c1)C(F)(F)F` [Example 1-159], 9.15.
On the same count and under the same terms, to `O=C(NCc1ccc(Cl)c(-c2nc(O)nc(-c3cccc(C4CC4)c3)n2)c1)C1(C(F)(F)F)CC1` [Example 1-160] belongs 8.85.
The compound `CCOc1ccc(-c2nc(O)nc(-c3cc(CNC(=O)C(C)(C)C(F)(F)F)ccc3Cl)n2)c(C)c1` [Example 1-161] gave a negative logarithm of the IC50 (pIC50) of 8.89.
`CO[C@](C)(C(=O)NCc1ccc(Cl)c(-c2nc(O)nc(-c3ccc(OCC4CC4)cc3)n2)c1)C(F)(F)F` [Example 1-162] had a pIC50 of 8.92.
`O=C(NCc1ccc(Cl)c(-c2nc(O)nc(-c3ccc(OCC4CC4)cc3)n2)c1)C1(C(F)(F)F)CC1` [Example 1-163] showed a pIC50 of 9.00.
In turn, `CC(C)(C(=O)NCc1ccc(Cl)c(-c2nc(O)nc(-c3ccc(OCC4(C(F)(F)F)CC4)cc3)n2)c1)C(F)(F)F` [Example 1-164] showed a pIC50 of 8.43.
Same read-out and setting: to `CO[C@](C)(C(=O)NCc1ccc(Cl)c(-c2nc(O)nc(-c3ccc(F)c(C4CC4)c3)n2)c1)C(F)(F)F` [Example 1-165] belongs 9.05; to `CC(C)(CC(F)(F)F)C(=O)NCc1ccc(Cl)c(-c2nc(O)nc(-c3ccc(OCC4CC4)cc3)n2)c1` [Example 1-166], 8.96.
Still for that read-out and setting: to `CC(C)(C(=O)NCc1ccc(Cl)c(-c2nc(O)nc(-c3ccc(OCCC4CC4)cc3)n2)c1)C(F)(F)F` [Example 1-167] belongs 8.72; to `CC1(C)CC(C(=O)NCc2ccc(Cl)c(-c3nc(O)nc(-c4ccc(OCC5CC5)cc4)n3)c2)C1` [Example 1-168], 8.68.
Still for that read-out and setting: to `O=C(NCc1ccc(Cl)c(-c2nc(O)nc(-c3ccc(OCC4CC4)cc3)n2)c1)C1CCC(F)(F)CC1` [Example 1-170] belongs 8.82; to `CCC(CC)C(=O)NCc1ccc(Cl)c(-c2nc(O)nc(-c3ccc(OCC4CC4)cc3)n2)c1` [Example 1-171], 9.30; to `CC(C)(C(=O)NCc1ccc(Cl)c(-c2nc(O)nc(-c3ccc(OCC4CCCCC4)cc3)n2)c1)C(F)(F)F` [Example 1-172], 7.77.
The compound `CC1(C)C(C(=O)NCc2ccc(Cl)c(-c3nc(O)nc(-c4ccc(OCC5CC5)cc4)n3)c2)C1(C)C` [Example 1-173] had a pIC50 of 8.27.
Still for that read-out and setting: to `Cc1ccc(C#N)c(-c2nc(O)nc(-c3ccc(C#Cc4ccccc4)cc3)n2)c1` [Example 1-174] belongs 8.51; to `Cc1cc(-c2nc(O)nc(-c3cc(CNC(=O)C(C)(C)C(F)(F)F)ccc3Cl)n2)ccc1OCC1CC1` [Example 1-175], 8.89; to `Cc1cc(-c2nc(O)nc(-c3cc(CNC(=O)C(C)(C)C(F)(F)F)ccc3Cl)n2)cc(C)c1OCC1CC1` [Example 1-176], 8.74.
On the same count and under the same terms, to `CO[C@](C)(C(=O)NCc1ccc(Cl)c(-c2nc(O)nc(-c3ccc(CC(C)C)cc3)n2)c1)C(F)(F)F` [Example 1-177] belongs 8.89.
For `CC1(C)CCC(Oc2ccc(-c3nc(O)nc(-c4cc(CNC(=O)C(C)(C)C(F)(F)F)ccc4Cl)n3)cc2)CC1` [Example 1-179], the pIC50 was 7.80.
The same measure, in the same setting: to `CCCCc1ccc(-c2nc(O)nc(-c3cc(CNC(=O)C(C)(C)C(F)(F)F)ccc3Cl)n2)cc1` [Example 1-180] belongs 8.39.
On to `CCCCc1ccc(-c2nc(O)nc(-c3cc(CNC(=O)[C@@](C)(OC)C(F)(F)F)ccc3Cl)n2)cc1` [Example 1-181], for which the pIC50 is 8.62.
Still for that read-out and setting: to `CC(C)COc1ccc(-c2nc(O)nc(-c3cc(CNC(=O)C(C)(C)C(F)(F)F)ccc3Cl)n2)cn1` [Example 1-182] belongs 8.80.
Compound `Cc1cc(-c2nc(O)nc(-c3cc(CNC(=O)C(C)(C)CC(F)(F)F)ccc3Cl)n2)ccc1F` [Example 1-183] showed a pIC50 of 8.89.
`Cc1cc(-c2nc(O)nc(-c3cc(CNC(=O)C(C)(C)C(F)(F)F)ccc3Cl)n2)ccc1F` [Example 1-186] gave a pIC50 of 8.85.
The same measure, in the same setting: to `CC(C)(C)COc1ccc(-c2nc(O)nc(-c3cc(CO)ccc3Cl)n2)cc1` [Example 1-187] belongs 8.28.
Same read-out and setting: to `CN(C)C(=O)OCc1ccc(Cl)c(-c2nc(O)nc(-c3ccc(OCC4CC4)cc3)n2)c1` [Example 1-190] belongs 7.33; to `CC(C)(C(=O)NCc1ccc(Cl)c(-c2nc(O)nc(-c3ccc(C#CC4CCCCC4)cc3)n2)c1)C(F)(F)F` [Example 1-191], 7.82.
For `NC(=O)c1ccc(Cl)c(-c2nc(O)nc(-c3ccc(OCC4CC4)cc3)n2)c1` [Example 1-193], the pIC50 was 5.06.
Still for that read-out and setting: to `CNC(=O)c1ccc(Cl)c(-c2nc(O)nc(-c3ccc(OCC4CC4)cc3)n2)c1` [Example 1-194] belongs 4.98.
Compound `CN(C)C(=O)c1ccc(Cl)c(-c2nc(O)nc(-c3ccc(OCC4CC4)cc3)n2)c1` [Example 1-195] showed a pIC50 of 5.22.

Staying with this test, now noted: at 30 μM test article.
The compound `O=C(O)c1ccc(Cl)c(-c2nc(O)nc(-c3ccc(OCC4CC4)cc3)n2)c1` [Example 1-192] came in with an inhibition at 30 µM of 41%.

What is called pIC50 is −log10 of the IC50, conventionally taken in molar units. A high value points to a small IC50. What is called inhibition is the relative decrease from the control value, in per cent. A low value points to little suppression.

(Values after patent US12398111B2, “Triazine compounds and pharmaceutical use thereof” (Japan Tobacco Inc., priority 2014, dated 2025).)
